Results from paper PMC2812657 (Biochemical and biophysical research communications, 2009).

Experiments:
[1] = biological target: GSK3α (Homo sapiens, UniProt P49840); assay: in vitro kinase profiling assay
[2] = biological target: GSK3β (Homo sapiens, UniProt P49841); assay: in vitro kinase profiling assay; type: biochemical
Chain of GSK3β (P49841 whole entry): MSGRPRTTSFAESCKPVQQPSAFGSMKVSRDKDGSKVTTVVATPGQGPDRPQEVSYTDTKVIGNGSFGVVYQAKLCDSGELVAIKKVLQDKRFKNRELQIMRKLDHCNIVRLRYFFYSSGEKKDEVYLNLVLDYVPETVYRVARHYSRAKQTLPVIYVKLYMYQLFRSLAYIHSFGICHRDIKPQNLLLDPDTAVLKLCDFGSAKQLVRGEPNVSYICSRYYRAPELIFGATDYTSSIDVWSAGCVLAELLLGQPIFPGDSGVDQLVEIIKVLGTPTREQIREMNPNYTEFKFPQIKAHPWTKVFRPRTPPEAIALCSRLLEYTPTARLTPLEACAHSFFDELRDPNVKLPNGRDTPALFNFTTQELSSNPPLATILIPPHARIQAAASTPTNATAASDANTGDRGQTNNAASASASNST

Chain of GSK3α (P49840 2-483): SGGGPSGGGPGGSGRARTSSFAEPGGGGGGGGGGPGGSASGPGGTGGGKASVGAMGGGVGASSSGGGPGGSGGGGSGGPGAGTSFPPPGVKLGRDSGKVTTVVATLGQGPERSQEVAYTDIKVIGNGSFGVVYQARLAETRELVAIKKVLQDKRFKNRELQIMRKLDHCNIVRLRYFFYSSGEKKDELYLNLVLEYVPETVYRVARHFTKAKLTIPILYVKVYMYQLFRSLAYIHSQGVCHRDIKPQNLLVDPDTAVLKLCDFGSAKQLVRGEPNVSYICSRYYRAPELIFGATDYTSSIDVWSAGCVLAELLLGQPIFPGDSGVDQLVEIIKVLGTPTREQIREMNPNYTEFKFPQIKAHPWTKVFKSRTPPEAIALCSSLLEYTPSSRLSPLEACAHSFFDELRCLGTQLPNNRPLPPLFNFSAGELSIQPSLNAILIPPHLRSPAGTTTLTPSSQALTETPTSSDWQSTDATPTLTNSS

Nc1cccc(-c2cc3c(Oc4cccc(O)c4)ncnc3[nH]2)c1 [TWS119]
IC50 [1]: 88 nM | IC50 [2]: 410 nM
